Results as given in patent publication US10669238B2, “Irreversible bruton's tyrosine kinase inhibitor” (HEFEI INSTITUTES OF PHYSICAL SCIENCE, CHINESE ACADEMY OF …, priority 2016, dated 2020).

These compounds were tested against BTK protein kinase (Homo sapiens, UniProt Q06187) (assay: In vitro enzymatic activity against BTK (ADP-Glo)). Conditions: compound with BTK 4 hours at room temperature; ATP 10 μM, 37° C. 1 hour; values in nM.
Assay type: biochemical
Experimental: In vitro enzymatic activity of the compounds against BTK was determined in a experimental assay of in vitro enzymatic activity using […] kit (purchased from Progema, USA).
9 μL of BTK protein kinase (at a concentration of 1.5 ng/μL) was used to react with compounds (1 μL) shown in the following table that were diluted three times in gradient at room temperature for 4 hours (the final concentration of the compound being 10 μM, 3 μM, 1 μM, 0.3 μM, 0.1 μM, 0.03 μM, 0.01 μM, 0.003 μM);
2 μL of ATP and 3 μL of the substrate Poly(4:1 Glu, Tyr)Peptide (Promega, USA) (the final concentrations being 10 μM and 0.2 μg/μL, respectively) were added to allow reaction at 37° C. for 1 hour;
5 μL of BTK kinase solution after reaction was taken and added into 5 μL of ADP-Glo™ (Promega, USA) reagent to allow reaction at room temperature for 40 mins so as to terminate the kinase reaction and exhaust the remaining ATP;
10 μL kinase detecting reagent was added to convert ADP to ATP, and newly synthesized ATP was detected using coupled luciferase/[…] reaction, then the IC50 values were calculated by using a plotting method based on the Envision reading.

Sequence of BTK protein kinase (Q06187 whole entry): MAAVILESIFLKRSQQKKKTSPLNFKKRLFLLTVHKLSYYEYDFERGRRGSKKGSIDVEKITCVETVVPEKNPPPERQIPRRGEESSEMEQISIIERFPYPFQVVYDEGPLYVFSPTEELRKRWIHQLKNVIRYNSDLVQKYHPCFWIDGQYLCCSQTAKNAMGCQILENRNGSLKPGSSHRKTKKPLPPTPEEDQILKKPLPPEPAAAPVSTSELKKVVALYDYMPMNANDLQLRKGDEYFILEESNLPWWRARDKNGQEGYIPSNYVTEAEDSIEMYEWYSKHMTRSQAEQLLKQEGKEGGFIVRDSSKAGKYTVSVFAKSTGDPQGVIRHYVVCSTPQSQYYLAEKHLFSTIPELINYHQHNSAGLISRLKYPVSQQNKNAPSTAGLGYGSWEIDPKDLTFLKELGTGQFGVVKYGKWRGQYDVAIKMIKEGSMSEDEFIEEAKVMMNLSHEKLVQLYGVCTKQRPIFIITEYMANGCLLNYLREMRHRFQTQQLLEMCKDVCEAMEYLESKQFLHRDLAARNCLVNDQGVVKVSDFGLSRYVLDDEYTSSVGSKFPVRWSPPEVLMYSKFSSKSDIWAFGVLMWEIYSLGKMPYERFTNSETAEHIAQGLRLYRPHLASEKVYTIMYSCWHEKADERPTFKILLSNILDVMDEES

Structure (SMILES)	IC50 [nM]
CCC(=O)Nc1cc(Nc2cc(-c3cccc(NC(=O)c4ccc(C(C)(C)C)cc4)c3C)cn(C)c2=O)ccc1C(=O)N1CCCC1 [Compound 33, N-(3-(5-((3-propanamide-4-(pyrrolidin-1-carbonyl)phenyl)amino)-1-methyl-6-oxo-1,6-dihydropyridin-3-yl)-2-methylphenyl)-4-(tert-butyl)benzamide]	165
CCC(=O)Nc1cc(Nc2cc(-c3cccc(NC(=O)c4ccc(N(C)C)cc4)c3C)cn(C)c2=O)ccc1C(=O)N1CCOCC1 [Compound 37, N-(3-(5-((3-propanamide-4-(morpholin-4-carbonyl)phenyl)amino)-1-methyl-6-oxo-1,6-dihydropyridin-3-yl)-2-methylphenyl)-4-(dimethylamino)benzo]	646
C=CC(=O)Nc1cc(Nc2cc(-c3cccc(NC(=O)c4ccc(C(C)(C)C)cc4)c3C)cn(C)c2=O)ccc1C(=O)N1CCN(C(=O)OC(C)(C)C)CC1 [Compound 38, tertbutyl 4-(2-acrylamide-4-((5-(3-(4-(tert-butyl)benzamide)-2-methylphenyl)-1-methyl-2-oxo-1,2-dihydropyridin-3-yl)amino)benzoyl)piperazin-1-carboxylate]	85
CCC(=O)Nc1cc(Nc2cc(-c3cccc(NC(=O)c4ccc(C(C)(C)C)cc4)c3C)cn(C)c2=O)ccc1C(=O)N1CCN(C(=O)OC(C)(C)C)CC1 [Compound 39, tertbutyl 4-(2-propanamide-4-((5-(3-(4-(tert-butyl)benzamide)-2-methylphenyl)-1-methyl-2-oxo-1,2-dihydropyridin-3-yl)amino)benzoyl)piperazin-1-carboxylate]	503
C=CC(=O)Nc1cc(Nc2cc(-c3cccc(NC(=O)c4ccc(N5CCCC5)cc4)c3C)cn(C)c2=O)ccc1C(=O)N1CCOCC1 [Compound 45, N-(3-(5-((3-acrylamide-4-(morpholin-4-carbonyl)phenyl)amino)-1-methyl-6-oxo-1,6-dihydropyridin-3-yl)-2-methylphenyl)-4-(pyrrolidin-1-yl)benzoylamide]	101
C=CC(=O)Nc1cc(Nc2cc(-c3cccc(NC(=O)c4ccc(C(C)(C)C)cc4)c3C)cn(C)c2=O)ccc1C(=O)OC [Compound 49, 2-acrylamide-4-((5-(3-(4-(tert-butyl)benzamide)-2-methylphenyl)-1-methyl-2-oxo-1,2-dihydropyridin-3-yl)amino)methyl benzoate]	162
C=CC(=O)Nc1cc(Nc2cc(-c3cccc(NC(=O)c4ccc(N(C)C)cc4)c3C)cn(C)c2=O)ccc1C(=O)N1CCCCC1 [Compound 50, N-(3-(5-((3-acrylamide-4-(piperidin-1-carbonyl)phenyl)amino)-1-methyl-6-oxo-1,6-dihydropyridin-3-yl)-2-methylphenyl)-4-(dimethylamino)benzoylamide]	91
C=CC(=O)Nc1cc(Nc2cc(-c3cccc(NC(=O)c4ccc(N(C)C)cc4)c3C)cn(C)c2=O)ccc1C(=O)NC1CCOCC1 [Compound 51, 2-acrylamide-4-((5-(3-(4-(dimethylamino)benzoylamide)-2-methylphenyl)-1-methyl-2-oxo-1,2-dihydropyridin-3-yl)amino)-N-(tetrahydro-2H-pyran-4-yl)benzoylamide]	89
C=CC(=O)Nc1cc(Nc2cc(-c3cccc(NC(=O)c4ccc(N(C)C)cc4)c3C)cn(C)c2=O)ccc1C(=O)N1CCC(OC)CC1 [Compound 52, N-(3-(5-((3-acrylamide-4-(4-methoxypiperidin-1-carbonyl)phenyl)amino)-1-methyl-6-oxo-1,6-dihydropyridin-3-yl)-2-methylphenyl)-4-(dimethylamino)benzoylamide]	586
C=CC(=O)Nc1cc(Nc2cc(-c3cccc(NC(=O)c4ccc(N(C)C)cc4)c3C)cn(C)c2=O)ccc1C(=O)NCCOC [Compound 53, 2-acrylamide-4-((5-(3-(4-(dimethylamino)benzoylamide)-2-methylphenyl)-1-methyl-2-oxo-1,2-dihydropyridin-3-yl)amino)-N-(2-methoxyethyl)benzoylamide]	667
C=CC(=O)Nc1cc(Nc2cc(-c3cccc(NC(=O)c4ccc(N(C)C)cc4)c3C)cn(C)c2=O)ccc1C(=O)N1CCCC(O)C1 (stereo not drawn) [Compound 55, N-(3-(5-((3-acrylamide-4-(3-hydroxypiperdin-1-carbonyl)phenyl)amino)-1-methyl-6-oxo-1,6-dihydropyridin-3-yl)-2-methylphenyl)-4-(dimethylamino)benzoylamide]	181

Compounds with a lower IC50, results first:

IC50 [nM]	Structure (SMILES)
29	Cc1c(NC(=O)c2ccc(C(C)(C)C)cc2)cccc1-c1cc(Nc2ccc(C(=O)N3CCCC3)c(NC(=O)CCl)c2)c(=O)n(C)c1 [Compound 32, N-(3-(5-((3-chloroacetamide-4-(pyrrolidin-1-carbonyl)phenyl)amino)-1-methyl-6-oxo-1,6-dihydropyridin-3-yl)-2-methylphenyl)-4-(tert-butyl)benzamide]
24	Cc1c(NC(=O)c2ccc(N(C)C)cc2)cccc1-c1cc(Nc2ccc(C(=O)N3CCOCC3)c(NC(=O)CCl)c2)c(=O)n(C)c1 [Compound 36, N-(3-(5-((3-chloroacetamide-4-(morpholin-4-carbonyl)phenyl)amino)-1-methyl-6-oxo-1,6-dihydropyridin-3-yl)-2-methylphenyl)-4-(dimethylamino)benzoylamide]
42	CCC(=O)Nc1cc(Nc2cc(-c3cccc(NC(=O)c4ccc(C(C)(C)C)cc4)c3C)cn(C)c2=O)ccc1C(=O)N1CCNCC1 [Compound 41, N-(3-(5-((3-propanamide-4-(piperazin-1-carbonyl)phenyl)amino)-1-methyl-6-oxo-1,6-dihydropyridin-3-yl)-2-methylphenyl)-4-(tert-butyl)benzamide]
41	C=CC(=O)Nc1cc(Nc2cc(-c3cccc(NC(=O)c4ccc5c(c4)CCCC5)c3C)cn(C)c2=O)ccc1C(=O)N1CCOCC1 [Compound 43, N-(3-(5-((3-acrylamide-4-(morpholin-4-carbonyl)phenyl)amino)-1-methyl-6-oxo-1,6-dihydropyridin-3-yl)-2-methylphenyl)-5,6,7,8-tetrahydronaphthalene-2-carboxamide]
72	C=CC(=O)Nc1cc(Nc2cc(-c3cccc(NC(=O)c4ccc5c(c4)OCCO5)c3C)cn(C)c2=O)ccc1C(=O)N1CCOCC1 [Compound 44, N-(3-(5-((3-acrylamide-4-(morpholin-4-carbonyl)phenyl)amino)-1-methyl-6-oxo-1,6-dihydropyridin-3-yl)-2-methylphenyl)-2,3-dihydrobenzo[b][1,4]dioxin-6-carboxamide]
45	C=CC(=O)Nc1cc(Nc2cc(-c3cccc(NC(=O)c4ccc(C(C)(C)C)cc4)c3C)cn(C)c2=O)ccc1C(=O)NC1CC1 [Compound 46, 2-acrylamide-4-((5-(3-(4-(tert-butyl)benzamide)-2-methylphenyl)-1-methyl-2-oxo-1,2-dihydropyridin-3-yl)amino)-N-cyclopropylbenzoylamide]
24	C=CC(=O)Nc1cc(Nc2cc(-c3cccc(NC(=O)c4ccc(C(C)(C)C)cc4)c3C)cn(C)c2=O)ccc1C(=O)N1CCCC(O)C1 (stereo not drawn) [Compound 47, N-(3-(5-((3-acrylamide-4-(3-hydroxypiperidin-1-carbonyl)phenyl)amino)-1-methyl-6-oxo-1,6-dihydropyridin-3-yl)-2-methylphenyl)-4-(tert-butyl)benzamide]
